Reference: ChEMBL document CHEMBL5357003, “A Simple Chiral 1H NMR Method for the Discrimination of (R)- and (S)-Cannabichromene in Complex Natural Mixtures and Their Effects on TRPA1 Activity” (J Nat Prod, 2024)
pEC50: −log10 of the molar value. ≈ marks a conversion by molar mass, not a printed value. Calls of active or inactive are those of the source. The calls are words filed in the database; no cut-off is given here.

Legend:
[1] = Cytotoxicity against human T24 cells by XTT assay; type: toxicity, cell-based, T-24
[2] = target: Transient receptor potential cation channel subfamily A member 1 (Rattus norvegicus, UniProt Q6RI86); assay: Agonist activity at rat TRPA1 expressed in HEK293 cells; type: cell-based
Transient receptor potential cation channel subfamily A member 1, sequence (Q6RI86 whole entry): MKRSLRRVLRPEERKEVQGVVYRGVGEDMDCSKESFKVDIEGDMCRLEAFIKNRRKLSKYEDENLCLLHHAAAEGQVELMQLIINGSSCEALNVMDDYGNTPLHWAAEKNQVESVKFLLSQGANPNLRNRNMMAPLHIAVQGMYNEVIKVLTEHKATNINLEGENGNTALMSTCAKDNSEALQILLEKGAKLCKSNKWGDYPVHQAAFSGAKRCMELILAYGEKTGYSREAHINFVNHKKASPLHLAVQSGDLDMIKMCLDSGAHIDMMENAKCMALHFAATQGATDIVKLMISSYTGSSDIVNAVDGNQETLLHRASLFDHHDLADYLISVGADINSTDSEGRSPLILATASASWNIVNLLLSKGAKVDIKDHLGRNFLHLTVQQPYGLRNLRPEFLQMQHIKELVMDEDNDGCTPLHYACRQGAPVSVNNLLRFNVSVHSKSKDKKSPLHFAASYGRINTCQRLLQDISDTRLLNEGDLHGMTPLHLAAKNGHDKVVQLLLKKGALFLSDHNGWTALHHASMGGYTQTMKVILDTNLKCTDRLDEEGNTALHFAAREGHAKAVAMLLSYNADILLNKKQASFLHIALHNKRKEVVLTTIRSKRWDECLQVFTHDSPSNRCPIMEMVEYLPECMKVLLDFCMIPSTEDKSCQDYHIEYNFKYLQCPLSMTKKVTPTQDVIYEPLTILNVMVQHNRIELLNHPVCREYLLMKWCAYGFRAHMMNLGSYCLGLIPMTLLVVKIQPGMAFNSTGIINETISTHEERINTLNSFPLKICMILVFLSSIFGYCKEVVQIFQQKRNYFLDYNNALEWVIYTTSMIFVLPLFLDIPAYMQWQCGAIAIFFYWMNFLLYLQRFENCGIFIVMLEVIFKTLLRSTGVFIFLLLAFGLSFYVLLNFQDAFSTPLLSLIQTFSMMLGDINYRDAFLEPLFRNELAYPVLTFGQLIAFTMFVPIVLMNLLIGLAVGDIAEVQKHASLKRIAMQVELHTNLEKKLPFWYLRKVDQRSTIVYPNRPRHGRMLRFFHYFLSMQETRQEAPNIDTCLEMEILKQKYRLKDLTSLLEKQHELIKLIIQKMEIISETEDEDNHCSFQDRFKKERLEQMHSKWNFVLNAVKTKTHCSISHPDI

[3] = target: Transient receptor potential cation channel subfamily A member 1 (Homo sapiens) (UniProt O75762); assay: Agonist activity at human TRPA1 expressed in HEK293E cells assessed as calcium mobilization measured every 2 sec for 150 sec by microplate reader analysis; type: cell-based; conditions: filed as agonist
Transient receptor potential cation channel subfamily A member 1 (Homo sapiens), sequence (O75762 whole entry): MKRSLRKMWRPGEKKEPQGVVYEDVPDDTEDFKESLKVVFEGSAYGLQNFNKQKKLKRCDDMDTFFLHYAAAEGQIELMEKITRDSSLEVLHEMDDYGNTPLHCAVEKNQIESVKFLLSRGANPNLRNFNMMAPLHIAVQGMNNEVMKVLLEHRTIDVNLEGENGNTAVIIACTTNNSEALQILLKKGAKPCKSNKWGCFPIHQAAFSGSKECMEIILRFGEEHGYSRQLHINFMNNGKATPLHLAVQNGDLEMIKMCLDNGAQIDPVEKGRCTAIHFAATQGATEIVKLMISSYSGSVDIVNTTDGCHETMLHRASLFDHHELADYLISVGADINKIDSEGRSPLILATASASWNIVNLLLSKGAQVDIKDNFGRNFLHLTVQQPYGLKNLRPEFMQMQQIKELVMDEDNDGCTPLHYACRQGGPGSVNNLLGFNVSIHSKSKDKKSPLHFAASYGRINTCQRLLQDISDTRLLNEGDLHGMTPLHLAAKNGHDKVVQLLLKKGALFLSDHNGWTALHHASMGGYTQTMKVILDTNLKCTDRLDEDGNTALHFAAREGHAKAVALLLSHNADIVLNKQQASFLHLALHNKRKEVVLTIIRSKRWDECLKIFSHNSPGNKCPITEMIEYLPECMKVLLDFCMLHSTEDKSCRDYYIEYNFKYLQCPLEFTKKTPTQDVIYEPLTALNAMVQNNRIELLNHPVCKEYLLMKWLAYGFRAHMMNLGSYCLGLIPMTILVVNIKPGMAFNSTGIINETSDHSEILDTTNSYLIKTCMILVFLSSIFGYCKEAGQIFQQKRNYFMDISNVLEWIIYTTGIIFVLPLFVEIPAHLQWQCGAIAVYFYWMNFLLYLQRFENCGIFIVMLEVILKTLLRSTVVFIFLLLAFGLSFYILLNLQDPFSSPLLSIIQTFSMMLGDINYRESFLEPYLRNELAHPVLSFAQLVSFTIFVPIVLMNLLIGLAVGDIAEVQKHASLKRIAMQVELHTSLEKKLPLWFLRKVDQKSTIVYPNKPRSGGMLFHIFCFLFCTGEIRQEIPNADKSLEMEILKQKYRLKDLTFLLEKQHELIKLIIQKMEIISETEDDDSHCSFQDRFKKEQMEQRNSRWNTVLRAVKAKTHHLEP

[4] = target: Transient receptor potential cation channel subfamily A member 1 (Rattus norvegicus) (UniProt Q6RI86); assay: Agonist activity at rat TRPA1 expressed in HEK293E cells assessed as calcium mobilization measured every 2 sec for 150 sec by microplate reader analysis; type: cell-based; conditions: filed as agonist
Transient receptor potential cation channel subfamily A member 1 (Rattus norvegicus), sequence (Q6RI86 whole entry): as the sequence (Q6RI86 whole entry) above

With `CCCCCc1cc(O)c2c(c1)OC(C)(C)[C@@H]1CCC(C)=C[C@@H]21` [DRONABINOL] the IC50 [1] was 13 µg/mL (≈ 41.5 µM).
Work on `CCCCCc1cc(O)c2c(c1)OC(C)(CCC=C(C)C)C=C2` (racemic) [CANNABICHROMENE] yielded an IC50 [1] of 13 µg/mL (≈ 41.5 µM) and a pEC50 [2] of 7.05.
For `CCCCCc1cc(O)c2c(c1)O[C@](C)(CCC=C(C)C)C=C2`, the Activity [3] was “Active” and the Activity [4] was “Active”.
For `CCCCCc1cc(O)c2c(c1)O[C@@](C)(CCC=C(C)C)C=C2`, the Activity [3] was “Active” and the Activity [4] was “Active”.
